Measurements: US20140235774A1, “FLUORESCENT COMPOUND, METHOD FOR PRODUCING THE SAME, AND FLUORESCENT RESIN COMPOSITION” (Shin-Etsu Chemical Co., Ltd., priority 2013, published 2014)
Values after ≈ are worked out from the molar mass of the structure shown.

Experiments:
Assay type in all cases: physicochemical
[1] = Fluorescent spectrum in solvent
Method: (§1) The ultraviolet-visible absorption spectrum and the fluorescent spectrum of Compound 1 were measured in ethanol. The longest absorption maximum wavelength was 359 nm, the molar absorbance coefficient was 6.50×10^4, and the maximum fluorescent wavelength was 410 nm (excitation wavelength: 359 nm).
(§2) The ultraviolet-visible absorption spectrum and the fluorescent spectrum of Compound 2 were measured in ethanol. The longest absorption maximum wavelength was 359 nm, the molar absorbance coefficient was 7.88×10^4, and the maximum fluorescent wavelength was 410 nm (excitation wavelength: 359 nm).
(§3) The ultraviolet-visible absorption spectrum and the fluorescent spectrum of Compound 3 were measured in tetrahydrofuran. The longest absorption maximum wavelength was 363 nm, the molar absorbance coefficient was 2.65×10^4, and the maximum fluorescent wavelength was 413 nm (excitation wavelength: 363 nm).
(§4) The ultraviolet-visible absorption spectrum and the fluorescent spectrum of Compound 4 were measured in tetrahydrofuran. The longest absorption maximum wavelength was 363 nm, the molar absorbance coefficient was 2.83×10^4, and the maximum fluorescent wavelength was 413 nm (excitation wavelength: 363 nm)

[2] = Ultraviolet-visible absorption spectrum in solvent
Method: as §1, §2, §3, §4

[3] = Solubility in transparent silicone resin SIM-360 base compound (portion-wise addition until transparent); conditions: for solubility in the SIM-360 base compound: room temperature, with stirring
Method: Into a glass vial, 10.1 mg of Compound 1 produced in Example 1 was weighed and added with a transparent silicone resin, the SIM-360 base compound (produced by Shin-Etsu Chemical Co., Ltd.) portion-wise at room temperature with stirring. Dissolution was determined when the solution turned transparent. The solubility was calculated to be 1 mmol/L. To this mixture, 10% by mass of a curing agent was added on the basis of the base compound and mixed. After defoaming, the mixture was heated at 150° C. for 30 minutes to be cured, giving a fluorescent silicone resin composition. It was possible to change the concentration of Compound 1 freely as long as the concentration was less than or equal to the above-described concentration.

[4] = in ethanol, excitation wavelength 359 nm
[5] = in tetrahydrofuran, excitation wavelength 363 nm

Row | Structure (SMILES) | maximum fluorescent wavelength [1, 4] [nm] | longest absorption maximum wavelength ([2]; in ethanol) [nm] | molar absorbance coefficient ([2]; in ethanol) | solubility in the SIM-360 base compound [3] [µM] | maximum fluorescent wavelength [1, 5] [nm] | longest absorption maximum wavelength ([2]; in tetrahydrofuran) [nm] | molar absorbance coefficient ([2]; in tetrahydrofuran) | solubility in the SIM-360 base compound (result in words) ([3]; measured as in Example 6)
1 | Cc1ccc(N(c2ccc(C)cc2)c2ccc(-c3ccc(N(c4ccc(-c5ccc(N(c6ccc(C)cc6)c6ccc(C)cc6)cc5)cc4)c4cccc([Si](C)(O[Si](C)(C)C)O[Si](C)(C)C)c4)cc3)cc2)cc1 [Compound 1, N,N-bis[4′-(N′,N′-di-4-tolylamino)biphenyl-4-yl]-3-(1-trimethylsiloxy-1,3,3,3-tetramethyldisiloxan-1-yl)aniline] | 410 | 359 | 6.50×10^4 | 1000 (≈ 1010 µg/mL) | – | – | – | –
2 | C[Si](C)(C)O[Si](C)(O[Si](C)(C)C)c1cccc(N(c2ccccc2)c2ccc(-c3ccc(N(c4ccccc4)c4ccc(-c5ccc(N(c6ccccc6)c6ccc(-c7ccc(N(c8ccccc8)c8cccc([Si](C)(O[Si](C)(C)C)O[Si](C)(C)C)c8)cc7)cc6)cc5)cc4)cc3)cc2)c1 [Compound 2, N,N′-bis[phenyl-3-(1-trimethylsoxy-1,3,3,3-tetramethyldisiloxan-1-yl)phenylaminobiphenyl-4′-yl]-N,N-diphenylbenzidine] | 410 | 359 | 7.88×10^4 | 500 (≈ 708 µg/mL) | – | – | – | –
3 | C[Si](C)(C)O[Si](C)(O[Si](C)(C)C)c1cccc(N(c2ccc(-c3ccc(N(c4ccccc4)c4ccc(-c5ccc(N(c6ccccc6)c6ccccc6)cc5)cc4)cc3)cc2)c2ccc(-c3ccc(N(c4ccccc4)c4ccc(-c5ccc(N(c6ccccc6)c6ccccc6)cc5)cc4)cc3)cc2)c1 [Compound 3, N,N-bis[4′-(N′-phenyl-N′-4′-diphenylaminobiphenyl-4-yl)biphenyl-4-yl]-3-(1-trimethylsiloxy-1,3,3,3-tetramethyldisiloxan-1-yl)aniline] | – | – | – | 100 (≈ 144 µg/mL) | 413 | 363 | 2.65×10^4 | –
4 | C[Si](C)(C)O[Si](C)(C)c1cccc(N(c2ccc(-c3ccc(N(c4ccccc4)c4ccc(-c5ccc(N(c6ccccc6)c6ccccc6)cc5)cc4)cc3)cc2)c2ccc(-c3ccc(N(c4ccccc4)c4ccc(-c5ccc(N(c6ccccc6)c6ccccc6)cc5)cc4)cc3)cc2)c1 [Compound 4, N,N-bis[4′-(N′-phenyl-N′-4′-diphenylaminobiphenyl-4-yl)biphenyl-4-yl]-3-(pentamethyldisiloxan-1-yl)aniline] | – | – | – | 100 (≈ 136 µg/mL) | 413 | 363 | 2.83×10^4 | –
5 | Cc1cccc(N(c2ccc(-c3ccc(N(c4ccccc4)c4ccc(-c5ccc(N(c6ccccc6)c6ccc(-c7ccc(N(c8cccc(C)c8)c8cccc(C)c8)cc7)cc6)cc5)cc4)cc3)cc2)c2cccc(C)c2)c1 [Compound 6, reference compound] | – | – | – | – | – | – | – | not dissolved at all
